Measurements: US9914724B2, “C-aryl glycosid derivatives, pharmaceutical composition, preparation process and uses thereof” (SHANGHAI DE NOVO PHARMATECH CO. LTD., priority 2014, dated 2018)

Columns and labels:
C57/BL6 mice = assay: Urinary glucose excretion test in C57/BL6 mice; assay type: in vivo; conditions: male C57/BL6 mice, 10 mg/Kg oral; for Glucose (excreted urine glucose): then 5 g/Kg glucose, total urine in 24 h, mean of 6 mice; for activity in urinary glucose excretion compared with compound A (Empagliflozin): 24 h urine, statement on Table 2
Procedure: Example 2: Urinary Glucose Excretion Test in C57/BL6 Mice
Adult male C57/BL6 mice with body weight over 20 g (Shanghai LSK Laboratory Animal Ltd) were orally dosed with test compound I (10 mg/Kg) after which the animals were fed with 5 g/Kg glucose. The animals were housed in metabolic cages to collect total urine in 24 h. The cage was washed with 5 mL of normal saline. Water and food were provided to the mice ad libitum during the 24 h period. The urine samples were immediately frozen after collection, and the glucose levels were then determined. The total amount of excreted urine glucose was calculated based on total amount of urine, and then converted to amount of excreted glucose (mg) per 200 mg body weight in 24 h based on mouse body weight. The result is shown in Table 2 (mean values of 6 mice).

SGLT-2 = target: T1, SGLT-2 (Homo sapiens, UniProt P31639); assay: [14C]-AMG absorption in stable SGLT2 expressing Flp-in CHO cells (SGLT-2 activity screening assay); assay type: cell-based; conditions: 14C-AMG uptake, 37° C. 1 h, 1% DMSO
T1 sequence (P31639 1-672): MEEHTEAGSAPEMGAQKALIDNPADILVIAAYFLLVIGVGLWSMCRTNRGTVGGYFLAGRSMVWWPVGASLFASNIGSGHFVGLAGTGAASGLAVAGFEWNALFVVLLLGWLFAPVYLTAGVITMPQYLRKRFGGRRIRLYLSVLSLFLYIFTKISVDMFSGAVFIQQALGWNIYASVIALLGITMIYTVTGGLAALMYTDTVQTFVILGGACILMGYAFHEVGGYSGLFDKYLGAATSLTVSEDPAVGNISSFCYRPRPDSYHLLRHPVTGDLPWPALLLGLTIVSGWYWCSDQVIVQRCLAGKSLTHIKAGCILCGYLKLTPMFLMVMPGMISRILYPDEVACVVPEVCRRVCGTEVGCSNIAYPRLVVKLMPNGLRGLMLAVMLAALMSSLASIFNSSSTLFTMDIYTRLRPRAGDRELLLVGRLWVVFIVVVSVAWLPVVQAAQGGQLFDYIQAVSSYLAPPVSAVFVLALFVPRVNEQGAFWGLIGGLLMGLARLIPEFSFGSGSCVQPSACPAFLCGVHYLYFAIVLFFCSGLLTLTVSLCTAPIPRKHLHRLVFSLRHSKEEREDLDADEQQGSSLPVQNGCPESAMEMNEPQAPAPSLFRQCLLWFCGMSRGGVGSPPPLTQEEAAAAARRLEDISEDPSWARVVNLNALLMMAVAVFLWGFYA
Description: (§1) Example 1: [^14C]-AMG Absorption in Stable SGLT1 and SGLT2 Expressing Flp-in CHO Cells (SGLT-1 and SGLT-2 Activity Screening Assay)
(§2) SGLT-1 and SGLT-2 cDNA clones were purchased from OriGene. After sequencing verification, the expression vectors were constructed based on pcDNA5/FRT using conventional molecular biology method. The expression vector was transfected into Flp-in CHO cells using Lipofectamin 2000. The transfected cells were subject hygromycin selection. The single clones of cells were selected by serial dilutions 4-5 weeks after transfection. The expression of SGLT-1 ? SGLT-2 were confirmed by RT-PCR and functional assay and cell line with strong signal was selected for subsequent study.
(§3) Culture of stable SGLT-1 and SGLT-2 expressing Flp-in CHO cell line: the culture media contain F12 medium (Invitrogen), 500 μg/ml hygromycin (Calbiochem) and 10% FBS (Invitrogen). Upon 80% confluency, the cells in the T75 flask were washed three times with PBS (Invitrogen), and 5 mL of Trpsin-EDTA solution (Invitrogen) was then added. The flask was gently rotated so that all the cells were submerged in the digestion solution. After the cells detach, 10 mL of culture medium was added and single cell suspension was prepared by pipetting up and down. The cell concentration was adjusted to 3×10^5/mL, 100 μL/well was added onto clear bottom 96-well plate (Corning).
(§4) The cells were ready for absorption assay once they attached after overnight culture. 12 h after cell plating, the cells were washed once with 150 μL/well absorption solution KRH-NMG (120 mM NMG, 4.7 mM KCl, 1.2 mM MgCl2, 2.2 mM CaCl2, 10 mM HEPES, pH 7.4 1 mM Tris). The solution was then removed from the well. 2.5 μCi/mL ^14C labeled AMG (PerkinElmer) Buffer KRH-Na+ (120 mM NaCl, 4.7 mM KCl, 1.2 mM MgCl2, 2.2 mM CaCl2, 10 mM HEPES, pH 7.4 1 mM Tris) was added at […] after washing with Buffer KRH-Na+ and KRH-NMG. The corresponding compound I was immediately added at 5 μL/well, ensuring the concentration of Dimethyl Sulfoxide was 1% (v/v). The plate was subsequently incubated at 37° C. for 1 h, after which 150 μL of ice cold wash buffer (120 mM NaCl, 4.7 mM KCl, 1.2 mM MgCl2, 2.2 mM CaCl2, 10 mM HEPES, 0.5 mM phlorizin, pH 7.4 1 mM Tris) was immediately added to terminate the reaction. Each well was washed three times with wash buffer and finally the solution was removed. Caution was taken to avoid cell detachment during the procedure. 20 μL/well of Lysis Buffer (0.1 mM NaOH) was added, the plate was vortexed at 900 rpm for 5 min. 80 μL/well of scintillation solution Microsint40 was added, and vortexed at 900 rpm for 5 min. The radioactivity was assayed using MicroBeta Trilux (PerkinElmer). The data was analyzed and IC50 of the compounds was calculated using XL-fit software.

SGLT-1 = target: T2, SGLT-1 (Homo sapiens, UniProt P13866); assay: [14C]-AMG absorption in stable SGLT1 expressing Flp-in CHO cells (SGLT-1 activity screening assay); assay type: cell-based; conditions: 14C-AMG uptake, 37° C. 1 h, 1% DMSO
T2 sequence (P13866 1-664): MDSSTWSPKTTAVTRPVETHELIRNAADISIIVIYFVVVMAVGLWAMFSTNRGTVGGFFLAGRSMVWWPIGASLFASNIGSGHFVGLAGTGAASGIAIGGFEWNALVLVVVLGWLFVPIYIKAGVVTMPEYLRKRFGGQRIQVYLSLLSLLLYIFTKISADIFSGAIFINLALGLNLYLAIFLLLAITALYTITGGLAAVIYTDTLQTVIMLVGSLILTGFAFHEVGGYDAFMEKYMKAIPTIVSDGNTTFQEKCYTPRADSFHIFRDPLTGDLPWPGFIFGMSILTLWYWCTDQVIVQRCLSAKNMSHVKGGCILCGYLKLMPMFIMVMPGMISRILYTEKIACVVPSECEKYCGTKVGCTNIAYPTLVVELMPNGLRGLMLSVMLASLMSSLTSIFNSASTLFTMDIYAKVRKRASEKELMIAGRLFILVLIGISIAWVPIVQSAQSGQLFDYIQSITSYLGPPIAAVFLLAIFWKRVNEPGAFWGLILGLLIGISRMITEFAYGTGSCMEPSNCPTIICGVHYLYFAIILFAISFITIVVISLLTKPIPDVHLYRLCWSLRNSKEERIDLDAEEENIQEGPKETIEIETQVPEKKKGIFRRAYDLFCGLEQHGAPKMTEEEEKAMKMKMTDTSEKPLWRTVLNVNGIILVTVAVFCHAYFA
Description: as §1, §2, §3, §4

Row | Structure (SMILES) | Glucose (excreted urine glucose) (C57/BL6 mice) | IC50 (SGLT-2) | activity in urinary glucose excretion compared with compound A (Empagliflozin) (C57/BL6 mice) | IC50 (SGLT-1)
1 | OC[C@H]1O[C@@H](c2ccc(Cl)c(Cc3ccc(O[C@H]4CCOC4)cc3)c2)[C@H](O)[C@@H](O)[C@@H]1O [A, Empagliflozin, reference compound] | 1536.5 mg/200 mg body weight/24 h | 6.6 nM |  | 
2 | OC[C@H]1O[C@@H](c2ccc(Cl)c(Cc3ccc(OCc4cc5ccccc5o4)cc3)c2)[C@H](O)[C@@H](O)[C@@H]1O [Compound I-1, (2S,3R,4R,5S,6R)-2-(3-(4-(benzofuran-2-ylmethoxy)benzyl)-4-chlorophenyl)-6-(hydroxymethyl)tetrahydro-2H-pyran-3,4,5-triol] | 1646.9 mg/200 mg body weight/24 h | 7 nM | significantly more active than compound A | 
3 | OC[C@H]1O[C@@H](c2ccc(Cl)c(Cc3ccc(OCC4Cc5ccccc5O4)cc3)c2)[C@H](O)[C@@H](O)[C@@H]1O (stereo partly drawn) [Compound I-22, (2S,3R,4R,5S,6R)-2-(4-chloro-3-(4-((2,3-dihydrobenzofuran-2-yl)methoxy)benzyl)phenyl)-6-(hydroxymethyl)tetrahydro-2H-pyran-3,4,5-triol] | 3106.6 mg/200 mg body weight/24 h | 4.1 nM | significantly more active than compound A | 2100 nM
4 | OC[C@H]1O[C@@H](c2ccc(Cl)c(Cc3ccc(OCC4OCc5ccccc54)cc3)c2)[C@H](O)[C@@H](O)[C@@H]1O (stereo partly drawn) [Compound I-36, (2S,3R,4R,5S,6R)-2-(4-chloro-3-(4-((1,3-dihydroisobenzofuran-1-yl)methoxy)benzyl)phenyl)-6-(hydroxymethyl)tetrahydro-2H-pyran-3,4,5-triol] | 1723.1 mg/200 mg body weight/24 h | 1 nM |  | 584 nM
5 | OC[C@H]1O[C@@H](c2ccc(Cl)c(Cc3ccc(OC[C@H]4OCc5ccccc54)cc3)c2)[C@H](O)[C@@H](O)[C@@H]1O [Compound I-37, (2S,3R,4R,5S,6R)-2-(4-chloro-3-(4-(((S)-1,3-dihydroisobenzofuran-1-yl)methoxy)benzyl)phenyl)-6-(hydroxymethyl)tetrahydro-2H-pyran-3,4,5-triol] |  | 2 nM |  | 615 nM
6 | OC[C@H]1O[C@@H](c2ccc(Cl)c(Cc3ccc(OC[C@@H]4OCc5ccccc54)cc3)c2)[C@H](O)[C@@H](O)[C@@H]1O [Compound I-38, (2S,3R,4R,5S,6R)-2-(4-chloro-3-(4-(((R)-1,3-dihydroisobenzofuran-1-yl)methoxy)benzyl)phenyl)-6-(hydroxymethyl)tetrahydro-2H-pyran-3,4,5-triol] |  | 1 nM |  | 608 nM
7 | Cc1ccc([C@@H]2O[C@H](CO)[C@@H](O)[C@H](O)[C@H]2O)cc1Cc1ccc(OCC2OCc3ccccc32)cc1 (stereo partly drawn) [Compound I-43, (2S,3R,4R,5S,6R)-2-(3-(4-((1,3-dihydroisobenzofuran-1-yl)methoxy)benzyl)-4-methylphenyl)-6-(hydroxymethyl)tetrahydro-2H-pyran-3,4,5-triol] |  | 1.7 nM |  | 322 nM
8 | CC1(COc2ccc(Cc3cc([C@@H]4O[C@H](CO)[C@@H](O)[C@H](O)[C@H]4O)ccc3Cl)cc2)OCc2ccccc21 (stereo partly drawn) [Compound I-108, (2S,3R,4R,5S,6R)-2-(4-chloro-3-(4-((1-methyl-1,3-dihydroisobenzofuran-1-yl)methoxy)benzyl)phenyl)-6-(hydroxymethyl)tetrahydro-2H-pyran-3,4,5-triol] |  | 10.2 nM |  | 1810 nM
9 | Cc1ccc([C@@H]2O[C@H](CO)[C@@H](O)[C@H](O)[C@H]2O)cc1Cc1ccc(OCC2(C)OCc3ccccc32)cc1 (stereo partly drawn) [Compound I-112, (2S,3R,4R,5S,6R)-2-(3-(4-((1-methyl-1,3-dihydroisobenzofuran-1-yl)methoxy)benzyl)-4-methylphenyl)-6-(hydroxymethyl)tetrahydro-2H-pyran-3,4,5-triol] |  | 8 nM |  | 179 nM
